Measurements taken from paper PMC11633415, “Investigation of the inhibitory properties of azo-dyes on chorismate synthase from Paracoccidioides brasiliensis” (Journal of Enzyme Inhibition and Medicinal Chemistry, 2024).
Where two headings read alike, the source gives them in different places.

How the values were obtained:
[1] = target: CS from Neurospora crassa; set-up: method as in earlier work; conditions: competitive inhibitor of CS from Neurospora crassa ref 9; cited from earlier work
CS = tested on: CS; set-up: method as in PMID 7559411; conditions: very slow substrate of CS ref 10; cited from earlier work
[2] = tested on: CS from Streptococcus pneumoniae (SpCS); set-up: method as in PMID 12565943; conditions: SpCS ref 12; cited from earlier work
PbCS [3] = target: T1, PbCS (Paracoccidioides brasiliensis, UniProt C1GBW5); set-up: method as in PMID 30348661
PbCS [4] = target: T1, PbCS; set-up: method as in PMID 30348661; conditions: PbCS ref 13, cited from earlier work
CS from N. crassa = CS from N. crassa ref 30; cited from earlier work
chorismate synthase (CS) [5] = target: T2, chorismate synthase (CS) (Thermotoga maritima, UniProt Q9WYI2); test: Spectrophotometric titration, CS from Thermotoga marítima; type: binding
T2 construct: made in house; host or cells: E. coli

chorismate synthase (CS) [6] = target: chorismate synthase (CS) (Toxoplasma gondii, UniProt O02607); test: Spectrophotometric titration, CS from Toxoplasmodium gondii; type: binding; conditions: CS from Toxoplasmodium gondii (protozoon)
[7] = target: chorismate synthase from Paracoccidioides brasiliensis (PbCS) (Paracoccidioides brasiliensis, UniProt C1GBW5); test: Spectrophotometric titration / binding assay, PbCS
Experimental: (§1) For the binding studies, PH011669 was dissolved in 50 mM NaH2PO4 and 150 mM NaCl at pH 8, diluted to a final concentration of approximately 10 µM (A580nm ∼0.25; 800 µL), and transferred to a quartz cuvette (with 800 µL of buffer in the reference cuvette). After recording an initial UV-visible absorption spectrum between 300 and 800 nm, 10 µL aliquots of PbCS (∼55 µM) were added, and spectral changes were monitored after each addition. To quantify the binding affinity of PH011669 to PbCS, we plotted the relative absorption changes at 510 nm as a function of the protein concentration in the cuvette[17].

chorismate synthase (CS) [8] = target: chorismate synthase (CS) (Botrytis cinerea, UniProt A0A384JF70); test: Spectrophotometric titration, CS from Botrytis fuckeliana; type: binding; conditions: CS from Botrytis fuckeliana (fungus)
chorismate synthase (CS) [9] = target: chorismate synthase (CS) (Staphylococcus aureus, UniProt Q2FYG9); test: Spectrophotometric titration, CS from Staphylococcus aureus; type: binding
chorismate synthase (CS) [10] = target: chorismate synthase (CS) (Candida albicans, UniProt A0A1D8PTK1); test: Spectrophotometric titration, CS from Candida albicans; type: binding; conditions: CS from Candida albicans (fungus)
chorismate synthase (CS) [11] = test: Spectrophotometric titration, CS from Solanum lycopersicum; type: binding; conditions: CS from Solanum lycopersicum (plant)
chorismate synthase (CS) [12] = target: T3, chorismate synthase (CS) (Capnoides sempervirens, UniProt P27793); test: Spectrophotometric titration, CS from Corydalis sempervirens; type: binding; conditions: CS from Corydalis sempervirens (plant)
T3 construct: made in house; host or cells: E. coli

chorismate synthase (CS) [13] = target: T4, chorismate synthase (CS) (Escherichia coli, UniProt P12008); test: Spectrophotometric titration, CS from Escherichia coli; type: binding
T4 construct: made in house; host or cells: E. coli

chorismate synthase (CS) [14] = target: T5, chorismate synthase (CS) (Saccharomyces cerevisiae, UniProt P28777); test: Spectrophotometric titration, CS from Saccharomyces cerevisiae; type: binding; conditions: CS from Saccharomyces cerevisiae (yeast)
T5 construct: made in house; host or cells: E. coli

chorismate synthase (CS) [15] = target: chorismate synthase (CS) (Methanothermobacter thermautotrophicus, UniProt O26843); test: Spectrophotometric titration, CS from Methanobacterium thermoautotrophicum; type: binding
chorismate synthase (CS) [16] = target: T6, chorismate synthase (CS) (Neurospora crassa, UniProt Q12640); test: Spectrophotometric titration, CS from Neurospora crassa; type: binding; conditions: CS from Neurospora crassa (fungus)
T6 construct: made in house; host or cells: E. coli
Experimental: as §1

chorismate synthase (CS) [17] = target: chorismate synthase (CS) (Tetrahymena thermophila, UniProt Q23FV7); test: Spectrophotometric titration, CS from Tetrahymena thermophila; type: binding
chorismate synthase (CS) [18] = target: T7, chorismate synthase (CS) (Trichormus variabilis, UniProt Q3MFM3); test: Spectrophotometric titration, CS from Anabaena variabilis; type: binding; conditions: CS from Anabaena variabilis (cyanobacterium)
T7 construct: made in house; host or cells: E. coli

PbCS [19] = target: T1, PbCS; test: Inhibition assay, CS reaction coupled with anthranilate synthase reaction; type: biochemical; conditions: 80 μM EPSP, 4 μM PbCS, 37 °C, Hill fit
Experimental: The influence of PH011669 on the activity of PbCS was tested by forward coupling the CS reaction with the anthranilate synthase reaction. The final reaction solution contained 80 μM EPSP, 4 μM PbCS, 7 µM YcnD, 20 μM anthranilate synthase, 4 mM MgSO4, 10 mM L-glutamine (L-Gln), 30 mM (NH4)2SO4, 1 mM dithiothreitol (DTT) and different concentrations of the inhibitor (0.1–250 µM). The assay was prepared in 10 mM potassium phosphate at pH 7.6 and pipetted into a 96-well plate. The reaction was started by the addition of 500 µM NADPH. PbCS activity could be studied spectrofluorometrically at 37 °C by following the increase in the fluorescence intensity at 390 nm (λex = 340 nm) for 5 min, which correlates with the amount of anthranilate formed in the course of the reaction. The slopes of the initial velocities were determined and plotted as a function of the log of the corresponding PH011669 concentration (triplicates were determined).
To test the inhibitory effect of PH011669 on the activity of CS, we used a coupled assay involving EPSP, CS, YcnD and anthranilate synthase. Our inhibition assay has been used to determine the ability of a drug to reduce the activity of the enzyme. The resulting IC50 value gives the concentration of a drug required for 50% inhibition of the enzymatic activity. […]

chorismate synthase (CS) [20] = target: T8, chorismate synthase (CS) (Aquifex aeolicus, UniProt O66493); test: Spectrophotometric titration, CS from Aquifex aeolicus; type: binding
T8 construct: made in house; host or cells: E. coli

PbCS [21] = target: T1, PbCS; test: Isothermal titration calorimetry (ITC); conditions: single site binding model, 25 °C, pH 8, triplicates, read-out: dissociation constant by ITC
Experimental: Isothermal titration calorimetry (ITC) was performed on a MicroCal PEAQ-ITC. All ITC experiments were conducted in storage buffer (50 mM NaH2PO4, 150 mM NaCl, pH 8) at 25 °C and a stirring rate of 750 rpm. Titration experiments consisted of 13 injections (first injection: 0.4 µL; duration time: 0.8 s; spacing time: 300 s; 2nd–13th injection: 3 µL; duration time: 6 s; spacing time: 150 s) and were performed in triplicates. The azo-dye PH011669 (500 µM) was loaded into the injection syringe and titrated into the sample cell containing PbCS (25 µM); the reference cell was filled with degassed ddH2O. Dissociation constants were obtained with the MicroCal PEAQ-ITC Analysis Software (Malvern) using the “one set of sites fitting” model.

T1 sequence (C1GBW5 entry or part of it): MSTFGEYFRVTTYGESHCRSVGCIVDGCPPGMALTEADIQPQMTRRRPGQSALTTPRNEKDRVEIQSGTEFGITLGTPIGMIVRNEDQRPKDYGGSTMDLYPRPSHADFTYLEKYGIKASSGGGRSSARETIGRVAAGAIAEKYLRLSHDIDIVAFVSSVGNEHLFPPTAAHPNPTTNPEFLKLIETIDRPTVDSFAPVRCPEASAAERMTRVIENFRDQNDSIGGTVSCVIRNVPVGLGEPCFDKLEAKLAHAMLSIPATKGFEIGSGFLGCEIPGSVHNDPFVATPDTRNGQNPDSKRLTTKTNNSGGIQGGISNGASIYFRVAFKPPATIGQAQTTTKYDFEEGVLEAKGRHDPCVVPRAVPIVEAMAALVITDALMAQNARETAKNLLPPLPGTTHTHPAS
chorismate synthase from Paracoccidioides brasiliensis (PbCS), sequence (C1GBW5 entry or part of it): as above
chorismate synthase (CS) (Staphylococcus aureus, UniProt Q2FYG9), sequence (Q2FYG9 whole entry): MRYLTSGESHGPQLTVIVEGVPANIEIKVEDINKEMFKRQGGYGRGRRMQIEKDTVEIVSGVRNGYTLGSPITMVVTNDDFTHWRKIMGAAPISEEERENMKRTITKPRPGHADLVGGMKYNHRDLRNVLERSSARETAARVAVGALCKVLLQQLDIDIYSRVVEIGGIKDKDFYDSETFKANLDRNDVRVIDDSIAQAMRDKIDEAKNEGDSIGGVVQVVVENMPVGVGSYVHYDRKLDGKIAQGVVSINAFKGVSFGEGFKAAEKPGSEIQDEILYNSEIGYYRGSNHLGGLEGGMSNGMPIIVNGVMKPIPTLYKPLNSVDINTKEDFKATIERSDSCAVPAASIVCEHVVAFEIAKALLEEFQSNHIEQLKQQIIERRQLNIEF
chorismate synthase (CS) (Candida albicans, UniProt A0A1D8PTK1), sequence (A0A1D8PTK1 entry or part of it): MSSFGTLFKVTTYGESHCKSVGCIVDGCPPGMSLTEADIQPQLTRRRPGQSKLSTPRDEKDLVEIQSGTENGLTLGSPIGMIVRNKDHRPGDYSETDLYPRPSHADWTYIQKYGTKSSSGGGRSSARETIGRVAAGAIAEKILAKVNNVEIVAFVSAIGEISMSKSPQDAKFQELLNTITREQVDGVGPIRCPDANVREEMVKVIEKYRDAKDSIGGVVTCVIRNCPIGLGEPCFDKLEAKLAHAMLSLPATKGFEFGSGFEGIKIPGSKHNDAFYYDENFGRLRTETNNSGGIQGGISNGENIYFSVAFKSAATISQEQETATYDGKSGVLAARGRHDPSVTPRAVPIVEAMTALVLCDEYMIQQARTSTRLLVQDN
T8 sequence (O66493 whole entry): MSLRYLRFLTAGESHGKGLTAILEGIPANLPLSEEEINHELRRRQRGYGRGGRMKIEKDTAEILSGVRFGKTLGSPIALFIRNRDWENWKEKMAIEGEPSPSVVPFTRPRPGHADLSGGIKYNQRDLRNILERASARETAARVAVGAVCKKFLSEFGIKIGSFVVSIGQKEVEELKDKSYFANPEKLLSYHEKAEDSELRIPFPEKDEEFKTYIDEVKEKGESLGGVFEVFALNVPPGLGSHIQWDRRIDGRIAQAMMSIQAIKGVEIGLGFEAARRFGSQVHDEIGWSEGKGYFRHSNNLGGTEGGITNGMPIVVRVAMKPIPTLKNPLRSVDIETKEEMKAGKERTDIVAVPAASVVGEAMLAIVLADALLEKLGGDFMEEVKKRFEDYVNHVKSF
chorismate synthase (CS) (Toxoplasma gondii, UniProt O02607), sequence (O02607 whole entry): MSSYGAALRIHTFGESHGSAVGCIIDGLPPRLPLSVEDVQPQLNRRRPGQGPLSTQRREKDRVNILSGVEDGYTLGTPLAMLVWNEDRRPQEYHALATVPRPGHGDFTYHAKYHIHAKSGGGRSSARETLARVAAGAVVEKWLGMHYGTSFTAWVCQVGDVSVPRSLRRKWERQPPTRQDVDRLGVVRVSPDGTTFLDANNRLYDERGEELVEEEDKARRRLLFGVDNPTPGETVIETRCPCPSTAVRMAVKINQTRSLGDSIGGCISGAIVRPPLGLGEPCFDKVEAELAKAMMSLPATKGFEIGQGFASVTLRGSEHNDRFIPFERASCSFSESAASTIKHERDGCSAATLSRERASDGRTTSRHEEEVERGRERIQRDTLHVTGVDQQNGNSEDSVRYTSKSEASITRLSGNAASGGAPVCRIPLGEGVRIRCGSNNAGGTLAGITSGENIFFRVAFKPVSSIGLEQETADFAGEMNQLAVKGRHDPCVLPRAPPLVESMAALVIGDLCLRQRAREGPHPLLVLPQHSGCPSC
T7 sequence (Q3MFM3 whole entry): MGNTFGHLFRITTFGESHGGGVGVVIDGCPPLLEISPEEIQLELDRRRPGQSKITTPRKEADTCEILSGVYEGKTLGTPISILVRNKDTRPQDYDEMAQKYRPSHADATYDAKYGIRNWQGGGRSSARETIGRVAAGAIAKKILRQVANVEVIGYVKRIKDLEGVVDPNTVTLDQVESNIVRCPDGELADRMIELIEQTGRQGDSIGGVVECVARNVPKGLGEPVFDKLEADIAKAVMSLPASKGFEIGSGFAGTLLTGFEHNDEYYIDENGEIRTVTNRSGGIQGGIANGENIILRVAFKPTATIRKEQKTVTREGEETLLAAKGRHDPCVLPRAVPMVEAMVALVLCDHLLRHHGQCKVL
T6 sequence (Q12640 whole entry): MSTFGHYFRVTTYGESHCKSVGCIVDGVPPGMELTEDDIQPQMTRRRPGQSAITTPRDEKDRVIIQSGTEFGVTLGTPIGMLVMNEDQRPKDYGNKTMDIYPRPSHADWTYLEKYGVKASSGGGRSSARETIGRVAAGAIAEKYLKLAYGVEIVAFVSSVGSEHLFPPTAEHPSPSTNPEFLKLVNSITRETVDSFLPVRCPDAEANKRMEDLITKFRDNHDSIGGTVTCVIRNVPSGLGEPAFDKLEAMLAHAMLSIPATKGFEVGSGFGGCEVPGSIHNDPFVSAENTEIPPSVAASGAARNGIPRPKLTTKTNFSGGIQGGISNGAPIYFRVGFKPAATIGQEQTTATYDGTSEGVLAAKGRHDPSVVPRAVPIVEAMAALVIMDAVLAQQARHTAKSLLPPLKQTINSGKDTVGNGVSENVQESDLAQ
T4 sequence (P12008 whole entry): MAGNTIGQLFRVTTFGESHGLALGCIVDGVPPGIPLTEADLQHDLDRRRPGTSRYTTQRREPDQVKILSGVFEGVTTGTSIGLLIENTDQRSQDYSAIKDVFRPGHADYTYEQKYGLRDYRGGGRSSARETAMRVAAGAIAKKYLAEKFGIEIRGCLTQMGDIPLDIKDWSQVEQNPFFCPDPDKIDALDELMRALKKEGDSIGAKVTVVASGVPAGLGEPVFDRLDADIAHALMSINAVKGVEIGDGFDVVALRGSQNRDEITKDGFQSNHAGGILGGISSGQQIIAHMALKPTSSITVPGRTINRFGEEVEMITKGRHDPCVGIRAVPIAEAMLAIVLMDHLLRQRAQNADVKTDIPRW
chorismate synthase (CS) (Tetrahymena thermophila, UniProt Q23FV7), sequence (Q23FV7 entry or part of it): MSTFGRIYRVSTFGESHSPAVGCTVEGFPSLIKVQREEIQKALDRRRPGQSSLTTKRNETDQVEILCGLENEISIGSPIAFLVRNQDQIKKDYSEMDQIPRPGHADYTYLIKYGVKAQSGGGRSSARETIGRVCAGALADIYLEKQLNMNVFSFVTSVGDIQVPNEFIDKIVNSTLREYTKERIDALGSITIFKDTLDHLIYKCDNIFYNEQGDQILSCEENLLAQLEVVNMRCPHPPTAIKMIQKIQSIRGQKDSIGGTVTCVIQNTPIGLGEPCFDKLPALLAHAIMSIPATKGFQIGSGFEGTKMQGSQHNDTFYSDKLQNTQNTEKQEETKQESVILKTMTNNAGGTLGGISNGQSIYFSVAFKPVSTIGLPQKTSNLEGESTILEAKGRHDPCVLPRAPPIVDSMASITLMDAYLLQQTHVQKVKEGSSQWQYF
T2 sequence (Q9WYI2 whole entry): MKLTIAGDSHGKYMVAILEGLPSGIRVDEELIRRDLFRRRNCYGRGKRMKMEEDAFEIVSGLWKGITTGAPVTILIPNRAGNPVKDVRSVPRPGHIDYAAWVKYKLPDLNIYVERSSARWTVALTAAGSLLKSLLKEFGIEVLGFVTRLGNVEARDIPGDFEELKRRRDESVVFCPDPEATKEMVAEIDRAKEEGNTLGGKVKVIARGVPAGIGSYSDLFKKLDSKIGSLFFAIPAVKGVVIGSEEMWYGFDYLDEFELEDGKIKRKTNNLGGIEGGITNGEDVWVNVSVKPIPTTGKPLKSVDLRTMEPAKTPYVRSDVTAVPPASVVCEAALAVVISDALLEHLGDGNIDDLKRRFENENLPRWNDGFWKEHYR
T5 sequence (P28777 whole entry): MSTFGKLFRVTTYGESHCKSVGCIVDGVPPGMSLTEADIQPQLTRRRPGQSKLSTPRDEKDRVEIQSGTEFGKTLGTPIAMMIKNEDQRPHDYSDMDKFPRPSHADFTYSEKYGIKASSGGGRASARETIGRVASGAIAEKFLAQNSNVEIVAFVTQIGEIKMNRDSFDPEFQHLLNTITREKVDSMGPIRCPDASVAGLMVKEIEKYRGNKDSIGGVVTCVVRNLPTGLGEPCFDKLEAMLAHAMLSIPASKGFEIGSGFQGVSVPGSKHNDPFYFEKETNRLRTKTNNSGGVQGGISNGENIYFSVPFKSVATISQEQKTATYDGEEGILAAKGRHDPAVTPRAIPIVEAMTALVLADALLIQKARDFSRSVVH

**Q.** Which Ki [1] does the source give for C=C(OC1C(O)C(OP(=O)(O)O)C=C(C(=O)O)[C@H]1F)C(=O)O (stereo partly drawn) [6(R)-6-fluoro-EPSP, (6R)-6-fluoro-5-enolpyruvylshikimate 3-phosphate] here?
**A.** 3 ± 0.3 µM

**Q.** With C=C(OC1C(O)C(OP(=O)(O)O)C=C(C(=O)O)[C@@H]1F)C(=O)O (stereo partly drawn) [6(S)-6-fluoro-EPSP, (6S)-6-fluoro-5-enolpyruvylshikimate-3-phosphate] as the compound, how does the “slower turnover than EPSP” value (CS) read?
**A.** 200 fold

**Q.** Which IC50 [2] does the source give for CCN(CC)c1ccc(/C=C2\Oc3c(ccc(O)c3O)C2=O)cc1 [BF1] here?
**A.** 8 µM

**Q.** Which IC50 [2] does the source give for CCCCCOc1ccc(/C=C2\Oc3c(ccc(O)c3O)C2=O)c(O)c1 [BF2] here?
**A.** 0.22 µM

**Q.** With O=C(O)[C@H]1Nc2c(cccc2[N+](=O)[O-])[C@@H]2[C@H](Cl)[C@@H](Sc3ccccc3[N+](=O)[O-])C[C@@H]21 [CP1, (1S,2S,3aS,4S,9bR)-1-chloro-6-nitro-2-(2-nitrophenyl)sulfanyl-2,3,3a,4,5,9b-hexahydro-1H-cyclopenta[c]quinoline-4-carboxylic acid] as the compound, how does the Kd (PbCS [3]; read-out: dissociation constant; PbCS ref 13; cited from earlier work) read?
**A.** 64 ± 1 µM

**Q.** What about the IC50 (PbCS [4]) of the same compound?
**A.** 47 µM

**Q.** Which results are given for O=[N+]([O-])c1ccc(/N=N/c2c(S(=O)(=O)O)cc3cc(S(=O)(=O)O)ccc3c2O)c([N+](=O)[O-])c1 [CaCS02, 2-(2,4-dinitrophenylazo)-1-hydroxynaphthalene-3,6-disulfonic acid (nitrazine yellow)]?
**A.** Kd (PbCS [3]; PbCS ref 13; read-out: dissociation constant; cited from earlier work): 20 µM; IC50 (PbCS [4]; read-out: IC50): 29 µM

**Q.** With C=C(OC1CC(C(=O)O)=CC(OP(=O)(O)O)C1O)C(=O)O (stereo not drawn) [EPSP, 5-enolpyruvylshikimate-3-phosphate] as the compound, how does the Kd (CS from N. crassa) read?
**A.** 17 µM

**Q.** Which Kd (chorismate synthase (CS) [5]) does the source give for Nc1cc(S(=O)(=O)O)cc2cc(S(=O)(=O)O)c(/N=N/c3cc([N+](=O)[O-])cc(Cl)c3O)c(O)c12 [PH011669, 5-amino-3-[(E)-(3-chloro-2-hydroxy-5-nitrophenyl)diazenyl]-4-hydroxy-2,7-naphthalenedisulfonic acid] here?
**A.** 1.5 µM

**Q.** What about the Kd (chorismate synthase (CS) [6]) of the same compound?
**A.** 1.7 µM

**Q.** What about the “higher affinity than the initial hit” value ([7]; affinity to PbCS relative to initial hit (CaCS02)) of the same compound?
**A.** ca. 20 fold

**Q.** What about the Kd ([7]; read-out: Kd (dissociation constant), spectrophotometric titration, PbCS) of the same compound?
**A.** 1.1 µM

**Q.** What about the Kd (chorismate synthase (CS) [8]) of the same compound?
**A.** 4 ± 0.6 µM

**Q.** And the Kd (chorismate synthase (CS) [9])?
**A.** 3.7 ± 0.1 µM

**Q.** What about the Kd (chorismate synthase (CS) [10]) of the same compound?
**A.** 4.6 ± 0.7 µM

**Q.** What about the Kd (chorismate synthase (CS) [11]) of the same compound?
**A.** 1.8 ± 0.1 µM

**Q.** And the Kd (chorismate synthase (CS) [12])?
**A.** 1 ± 0.1 µM

**Q.** What about the Kd (chorismate synthase (CS) [13]) of the same compound?
**A.** 3.7 ± 1 µM

**Q.** What about the Kd (chorismate synthase (CS) [14]) of the same compound?
**A.** 2.4 ± 0.1 µM

**Q.** What about the Kd (chorismate synthase (CS) [15]) of the same compound?
**A.** 2.7 µM

**Q.** What about the Kd (chorismate synthase (CS) [16]) of the same compound?
**A.** 3.5 ± 0.1 µM

**Q.** What about the Kd (chorismate synthase (CS) [17]) of the same compound?
**A.** 4.4 ± 0.1 µM

**Q.** What about the Kd (chorismate synthase (CS) [18]) of the same compound?
**A.** 1.8 ± 0.1 µM

**Q.** What about the IC50 (PbCS [19]) of the same compound?
**A.** 10 ± 1 µM

**Q.** And the Kd (chorismate synthase (CS) [20])?
**A.** 3.2 ± 0.1 µM

**Q.** And the Kd (PbCS [21])?
**A.** 3.8 ± 1.8 µM
